The text below walks through data of patent publication US20260078120A1, “SUBSTITUTED PYRIDOPYRIMIDINONES” (MIRATI THERAPEUTICS, INC., priority 2022, published 2026).

For orientation: IC50 means the midpoint of a concentration-inhibition curve.

Assay [1] concerns SKBR3 (PI3Kα wild type) cells. The assay is described as follows: CellTiter-Glo 2.0 luminescent cell viability assay, 72 hours, SKBR3 cells. The note with it: Homo sapiens, SK-BR-3, 72 h, SKBR3 (PI3Kα wild type) cells, CellTiter-Glo, approximately 72 hours; read-out: SKBR3 (WT) Viability IC50. The format is cell-based. Put shortly:
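Viability measured via CTG luminescence following roughly 72 hours of compound exposure at 37° C. Dosing used a 10 um starting concentration diluted 1:4 over 10 points; percent-of-vehicle data fitted with a variable-slope four-parameter model for IC50.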
Background: In ATP-based viability assays light output follows the ATP content of the culture.

The test system of assay [2] is T47D (PI3Kα H1047R mutant) cells. The experiment in a line: CellTiter-Glo 2.0 luminescent cell viability assay, 72 hours, T47D cells. Type of assay: cell-based. The note with it: Homo sapiens, T47D, 72 h, T47D (PI3Kα H1047R mutant) cells, CellTiter-Glo, approximately 72 hours; read-out: T47D (H1047R mutant) Viability IC50. The method, boiled down:
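Cells seeded at 1000 per well overnight were dosed with a 10-concentration, 1:4 series starting at 10 µM and incubated ~72 h at 37° C. Viability was read by CellTiter-Glo 2.0 luminescence after 30 min at room temperature. IC50 came from four-parameter fits of percent vehicle control.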

With `Cc1cc([C@@H](C)Nc2cc(Cl)nnc2C(=O)O)c2nc(N3Cc4ccccc4C3)c(C)c(=O)n2c1` [Example 11-276, (R)-6-chloro-4-((1-(2-(isoindolin-2-yl)-3,7-dimethyl-4-oxo-4H-pyrido[1,2-a]pyrimidin-9-yl)ethyl)amino)pyridazine-3-carboxylic acid], the half-inhibitory concentration (IC50) in assay [1] and in assay [2] was greater than 10 µM in each case.

On to `Cc1cc([C@@H](C)Nc2ccnnc2C(=O)O)c2nc(N3Cc4ccccc4C3)c(C)c(=O)n2c1` [Example 11-277, (R)-4-((1-(2-(isoindolin-2-yl)-3,7-dimethyl-4-oxo-4H-pyrido[1,2-a]pyrimidin-9-yl)ethyl)amino)pyridazine-3-carboxylic acid], for which the IC50 in assay [1] was greater than 10 µM; in assay [2] it was 4.19 µM.

For `Cc1cc([C@@H](C)Nc2cccn(C)c2=O)c2nc(N3CCCCC3)c(C)c(=O)n2c1` [Example 11-278, (R)-3,7-dimethyl-9-(1-((1-methyl-2-oxo-1,2-dihydropyridin-3-yl)amino)ethyl)-2-(piperidin-1-yl)-4H-pyrido[1,2-a]pyrimidin-4-one], the half-maximal inhibitory concentration (IC50) in assay [1] was greater than 10 µM; in assay [2] it was 8.35 µM.

As to `Cc1cc([C@@H](C)Nc2ccc(Cl)nc2C(=O)O)c2nc(N3CCC(C)(C)CC3)c(C)c(=O)n2c1` [Example 11-279, (R)-6-chloro-3-((1-(2-(4,4-dimethylpiperidin-1-yl)-3,7-dimethyl-4-oxo-4H-pyrido[1,2-a]pyrimidin-9-yl)ethyl)amino)picolinic acid], the values for the IC50 in assay [1] and in assay [2] were greater than 10 µM and 0.192 µM, respectively.

For `Cc1cc([C@@H](C)Nc2ccc(Cl)cc2C(=O)O)c2nc(N3Cc4ccccc4C3)c(C)c(=O)n2c1` [Example 11-280, (R)-5-chloro-2-((1-(2-(isoindolin-2-yl)-3,7-dimethyl-4-oxo-4H-pyrido[1,2-a]pyrimidin-9-yl)ethyl)amino)benzoic acid], the results for the IC50 in assay [1] and in assay [2] were greater than 10 µM and 0.383 µM, respectively.

Take `Cc1cc([C@@H](C)Nc2ccc(Cl)cc2C(=O)O)c2nc(N3CCCCC3)c(C)c(=O)n2c1` [Example 11-281, (R)-5-chloro-2-((1-(3,7-dimethyl-4-oxo-2-(piperidin-1-yl)-4H-pyrido[1,2-a]pyrimidin-9-yl)ethyl)amino)benzoic acid]: the IC50 in assay [1] was greater than 10 µM; in assay [2] it was 0.427 µM.

On to `Cc1cc([C@@H](C)Nc2ccccc2C(=O)O)c2nc(NC34CC(CO)(C3)C4)c(C#N)c(=O)n2c1` [Example 11-282, (R)-2-((1-(3-cyano-2-((3-(hydroxymethyl)bicyclo[1.1.1]pentan-1-yl)amino)-7-methyl-4-oxo-4H-pyrido[1,2-a]pyrimidin-9-yl)ethyl)amino)benzoic acid], for which the IC50 in assay [1] was greater than 10 µM; in assay [2], 1.65 µM.

For the molecule `Cc1cc([C@@H](C)Nc2ccccc2C(=O)O)c2nc(N3CCN(S(C)(=O)=O)CC3)c(C#N)c(=O)n2c1` [Example 11-283, (R)-2-((1-(3-cyano-7-methyl-2-(4-(methylsulfonyl)piperazin-1-yl)-4-oxo-4H-pyrido[1,2-a]pyrimidin-9-yl)ethyl)amino)benzoic acid], the figures for the IC50 in assay [1] and in assay [2] were greater than 10 µM and 7.17 µM, respectively.

`Cc1cc([C@@H](C)Nc2ccccc2C(=O)O)c2nc(N3CCNC(=O)C3)c(C#N)c(=O)n2c1` [Example 11-284, (R)-2-((1-(3-cyano-7-methyl-4-oxo-2-(3-oxopiperazin-1-yl)-4H-pyrido[1,2-a]pyrimidin-9-yl)ethyl)amino)benzoic acid]: the IC50 in assay [1] and in assay [2] was greater than 10 µM throughout.

For the molecule `Cc1cc([C@@H](C)Nc2ccccc2C(=O)O)c2nc(N3CCC4(CCO4)C3)c(C#N)c(=O)n2c1` (stereo partly drawn) [Example 11-285, 2-(((1R)-1-(3-cyano-7-methyl-4-oxo-2-(1-oxa-6-azaspiro[3.4]octan-6-yl)-4H-pyrido[1,2-a]pyrimidin-9-yl)ethyl)amino)benzoic acid], the IC50 in assay [1] and in assay [2] was greater than 10 µM in each case.

For `Cc1cc([C@@H](C)Nc2ccccc2C(=O)O)c2nc(N3Cc4ccncc4C3)c(C#N)c(=O)n2c1` [Example 11-286, (R)-2-((1-(3-cyano-2-(1,3-dihydro-2H-pyrrolo[3,4-c]pyridin-2-yl)-7-methyl-4-oxo-4H-pyrido[1,2-a]pyrimidin-9-yl)ethyl)amino)benzoic acid], the IC50 in assay [1] is greater than 10 µM; in assay [2], 0.284 µM.

As to `Cc1cc([C@@H](C)Nc2ccccc2C(=O)O)c2nc(N3Cc4ccccc4C3CO)c(C#N)c(=O)n2c1` (stereo partly drawn) [Example 11-288, 2-(((1R)-1-(3-cyano-2-(1-(hydroxymethyl)isoindolin-2-yl)-7-methyl-4-oxo-4H-pyrido[1,2-a]pyrimidin-9-yl)ethyl)amino)benzoic acid], the IC50 in assay [1] was greater than 10 µM; in assay [2] it was 0.721 µM.

In the case of `Cc1cc([C@@H](C)Nc2ccccc2C(=O)O)c2nc(N3CCC4(CCC(=O)N4)C3)c(C#N)c(=O)n2c1` (stereo partly drawn) [Example 11-289, 2-(((1R)-1-(3-cyano-7-methyl-4-oxo-2-(2-oxo-1,7-diazaspiro[4.4]nonan-7-yl)-4H-pyrido[1,2-a]pyrimidin-9-yl)ethyl)amino)benzoic acid], the values for the IC50 in assay [1] and in assay [2] were greater than 10 µM and 1.87 µM, respectively.

Turning to `Cc1c(N2Cc3ccccc3C2)nc2c([C@@H](C)Nc3ccccc3C(=O)O)cc(F)cn2c1=O` [Example 11-290, (R)-2-((1-(7-fluoro-2-(isoindolin-2-yl)-3-methyl-4-oxo-4H-pyrido[1,2-a]pyrimidin-9-yl)ethyl)amino)benzoic acid], the concentration for half-maximal inhibition (IC50) was greater than 10 µM in assay [1] and 0.392 µM in assay [2].

Turning to `Cc1c(N2Cc3ccccc3C2)nc2c([C@@H](C)Nc3ccccc3C(=O)O)cc(Cl)cn2c1=O` [Example 11-291, (R)-2-((1-(7-chloro-2-(isoindolin-2-yl)-3-methyl-4-oxo-4H-pyrido[1,2-a]pyrimidin-9-yl)ethyl)amino)benzoic acid], the IC50 in assay [1] is greater than 10 µM; in assay [2], 0.117 µM.

For `Cc1cc([C@@H](C)Nc2scnc2C(=O)O)c2nc(N3CCC(F)(F)CC3)c(C#N)c(=O)n2c1` [Example 11-292, (R)-5-((1-(3-cyano-2-(4,4-difluoropiperidin-1-yl)-7-methyl-4-oxo-4H-pyrido[1,2-a]pyrimidin-9-yl)ethyl)amino)thiazole-4-carboxylic acid], the IC50 in assay [1] was greater than 10 µM; in assay [2], 3.95 µM.

For `Cc1cc([C@@H](C)Nc2ccc(F)cc2C(=O)O)c2nc(N3CCCCC3)c(C#N)c(=O)n2c1` [Example 11-293, (R)-2-((1-(3-cyano-7-methyl-4-oxo-2-(piperidin-1-yl)-4H-pyrido[1,2-a]pyrimidin-9-yl)ethyl)amino)-5-fluorobenzoic acid], the 50% inhibitory concentration (IC50) in assay [1] is greater than 10 µM; in assay [2], 0.168 µM.

For `Cc1cc([C@@H](C)Nc2ccccc2C(=O)O)c2nc(N3C[C@H]4CC[C@@H]3C4)c(C#N)c(=O)n2c1` [Example 11-294, 2-(((R)-1-(2-((1R,4S)-2-azabicyclo[2.2.1]heptan-2-yl)-3-cyano-7-methyl-4-oxo-4H-pyrido[1,2-a]pyrimidin-9-yl)ethyl)amino)benzoic acid], the IC50 in assay [1] is greater than 10 µM; in assay [2], 0.17 µM.

For `Cc1cc([C@@H](C)Nc2ccccc2C(=O)O)c2nc(N3CCN(C)CC3)c(C#N)c(=O)n2c1` [Example 11-295, (R)-2-((1-(3-cyano-7-methyl-2-(4-methylpiperazin-1-yl)-4-oxo-4H-pyrido[1,2-a]pyrimidin-9-yl)ethyl)amino)benzoic acid], the IC50 in assay [1] is greater than 10 µM; in assay [2] it was 0.503 µM.
